According to patent US20180105492A1, “COMPOUNDS DERIVED FROM 3-ALKYLAMINE-1H-INDOLYL ACRYLATE AND THEIR USE IN THE TREATMENT OF NEURODEGENERATIVE DISEASES” (FUNDACION PARA LA INVESTIGACION BIOMEDICA DEL HOSPITAL …, priority 2014, published 2018):

experiment: Oxygen radical absorbance capacity (ORAC), free radical scavenger capacity; conditions: fluorescein/AAPH, pH 7.4, trolox = 1
Protocol: In order to study the potential antioxidant effect of the compounds of the invention, we performed an oxygen radical absorbance capacity (ORAC) experiment.
For studying the free radical scavenger capacity, we measured the degree peroxide radical inhibition. Thus, scavenger capacity is measured as trolox equivalents and includes the disappearance of free radicals over time and the decrease of oxidative damage at the end of the experiment. The protocol used is based in the protocol developed by Ou and col. (Ou y col., 2001, J Agric Food Chem, 49: 4619-26) partially modified by Dávalos and col. (Davalos y col., 2004, J Agric Food Chem, 52: 48-54). The reaction was performed in phosphate tampon 75 mM (pH 7.4), with a final volume of 200 μL. 150 μL of fluorescein (final concentration of 70 nM) with 25 μL the compound of study at the desired concentration in triplicates, using surface transparent 96 well black plates for measuring fluorescence.
The mixture was pre-incubated during 15 min at 37° C. and, afterwards, 25 μL of a solution containing 2,2′-Azobis(2-amidinopropane) dihydrochloride (AAPH) (final concentration; 12 mM) were rapidly added. Fluorescence was immediately measured using a plate reader fluostar optima, using the filters of emission and excitation of […], respectively. Fluorescence intensity was measured during 90 min. Each compound was measured at 6 different concentrations. In the assay, fluorescein+AAPH in phosphate tampon was added as a blank and a calibration curve was performed using Trolox (1-8 μM). Every variable was prepared in duplicates and at least three independent experiments were performed for each compound. The curves of the compounds (F.I.—time) were normalized respect to the curve of the blank for each experiment and area under the curve (AUC) of the decreasing in fluorescence was calculated. AUC value of each compound was calculated subtracting the AUC of the blank. Regression curves between AUC and concentration of the compound were calculated for each of the samples. ORAC values were expressed as trolox equivalents with respect to the calibration curve of each assay, where the trolox value was considered 1.

**Q.** For `C/C=C/C(=O)Oc1ccc2[nH]cc(CCNC(C)=O)c2c1` [Compound 1, 3-(2-acetamidoethyl)-1H-indol-5-yl (E)-2-butenoate], which “ORAC (Trolox eq.)” value is on record?
**A.** 8.64 ± 1.98 Trolox eq.

**Q.** For `CC(=O)NCCc1c[nH]c2ccc(OC(=O)/C=C/c3ccccc3)cc12` [Compound 2, 3-(2-acetamidoethyl)-1H-indol-5-yl cinnamate], which “ORAC (Trolox eq.)” value is on record?
**A.** 4.30 ± 0.50 Trolox eq.

**Q.** With `CC(=O)NCCc1c[nH]c2ccc(OC(=O)/C=C/c3ccc(C)cc3)cc12` [Compound 3, 3-(2-acetamidoethyl)-1H-indol-5-yl (E)-3-(4-methylphenyl)acrylate] as the molecule, how does the “ORAC (Trolox eq.)” value read?
**A.** 4.44 ± 0.51 Trolox eq.

**Q.** With `COc1ccccc1/C=C/C(=O)Oc1ccc2[nH]cc(CCNC(C)=O)c2c1` [Compound 4, 3-(2-acetamidoethyl)-1H-indol-5-yl (E)-3-(2-methoxyphenyl)acrylate] as the molecule, how does the “ORAC (Trolox eq.)” value read?
**A.** 3.02 ± 0.20 Trolox eq.

**Q.** For `COc1cccc(/C=C/C(=O)Oc2ccc3[nH]cc(CCNC(C)=O)c3c2)c1` [Compound 5, 3-(2-acetamidoethyl)-1H-indol-5-yl (E)-3-(3-methoxyphenyl)acrylate], which “ORAC (Trolox eq.)” value is on record?
**A.** 3.52 ± 0.27 Trolox eq.

**Q.** With `COc1ccc(/C=C/C(=O)Oc2ccc3[nH]cc(CCNC(C)=O)c3c2)cc1` [Compound 6, 3-(2-acetamidoethyl)-1H-indol-5-yl (E)-3-(4-methoxyphenyl)acrylate] as the molecule, how does the “ORAC (Trolox eq.)” value read?
**A.** 3.51 ± 0.27 Trolox eq.

**Q.** With `CC(=O)NCCc1c[nH]c2ccc(OC(=O)/C=C/c3ccc(O)cc3)cc12` [Compound 7, 3-(2-acetamidoethyl)-1H-indol-5-yl (E)-3-(4-hydroxyphenyl)acrylate] as the molecule, how does the “ORAC (Trolox eq.)” value read?
**A.** 9.21 ± 0.81 Trolox eq.

**Q.** Which “ORAC (Trolox eq.)” value does the source give for `COc1cc(/C=C/C(=O)Oc2ccc3[nH]cc(CCNC(C)=O)c3c2)ccc1O` [Compound 8, 3-(2-acetamidoethyl)-1H-indol-5-yl (E)-3-(4-hydroxy-3-methoxyphenyl)acrylate] here?
**A.** 8.04 ± 0.66 Trolox eq.

**Q.** With `CC(=O)NCCc1c[nH]c2ccc(OC(=O)/C=C/c3ccc(F)cc3)cc12` [Compound 9, 3-(2-acetamidoethyl)-1H-indol-5-yl (E)-3-(4-fluorophenyl)acrylate] as the molecule, how does the “ORAC (Trolox eq.)” value read?
**A.** 3.44 ± 0.67 Trolox eq.

**Q.** For `CC(=O)NCCc1c[nH]c2ccc(OC(=O)/C=C/c3ccc(Br)cc3)cc12` [Compound 10, 3-(2-acetamidoethyl)-1H-indol-5-yl (E)-3-(4-bromophenyl)acrylate], which “ORAC (Trolox eq.)” value is on record?
**A.** 2.53 ± 0.18 Trolox eq.

**Q.** For `CC(=O)NCCc1c[nH]c2ccc(OC(=O)/C=C/c3ccc(Cl)cc3)cc12` [Compound 11, 3-(2-acetamidoethyl)-1H-indol-5-yl (E)-3-(4-chlorophenyl)acrylate], which “ORAC (Trolox eq.)” value is on record?
**A.** 2.91 ± 0.32 Trolox eq.

**Q.** With `CC(=O)NCCc1c[nH]c2ccc(OC(=O)/C=C/c3ccc(Cl)c(Cl)c3)cc12` [Compound 12, 3-(2-acetamidoethyl)-1H-indol-5-yl (E)-3-(3,4-dichlorophenyl)acrylate] as the molecule, how does the “ORAC (Trolox eq.)” value read?
**A.** 5.37 ± 0.38 Trolox eq.

**Q.** With `CC(=O)NCCc1c[nH]c2ccc(OC(=O)/C=C/c3ccccc3C(F)(F)F)cc12` [Compound 13, 3-(2-acetamidoethyl)-1H-indol-5-yl (E)-3-(2-(trifluoromethyl)phenyl)acrylate] as the molecule, how does the “ORAC (Trolox eq.)” value read?
**A.** 3.33 ± 0.28 Trolox eq.

**Q.** With `CC(=O)NCCc1c[nH]c2ccc(OC(=O)/C=C/c3cccc(C(F)(F)F)c3)cc12` [Compound 14, 3-(2-acetamidoethyl)-1H-indol-5-yl (E)-3-(3-(trifluoromethyl)phenyl)acrylate] as the molecule, how does the “ORAC (Trolox eq.)” value read?
**A.** 4.13 ± 0.39 Trolox eq.

**Q.** With `CC(=O)NCCc1c[nH]c2ccc(OC(=O)/C=C/c3ccc(C(F)(F)F)cc3)cc12` [Compound 15, 3-(2-acetamidoethyl)-1H-indol-5-yl (E)-3-(4-(trifluoromethyl)phenyl)acrylate] as the molecule, how does the “ORAC (Trolox eq.)” value read?
**A.** 3.97 ± 0.38 Trolox eq.

**Q.** Which “ORAC (Trolox eq.)” value does the source give for `CC(=O)NCCc1c[nH]c2ccc(OC(=O)/C=C/c3ccc([N+](=O)[O-])cc3)cc12` [Compound 16, 3-(2-acetamidoethyl)-1H-indol-5-yl (E)-3-(4-nitrophenyl)acrylate] here?
**A.** 4.12 ± 0.49 Trolox eq.
